This note sets out measurements from ChEMBL document CHEMBL5291721, “A preclinical secondary pharmacology resource illuminates target-adverse drug reaction associations of marketed drugs” (Nat Commun, 2023).

The AC50 is the concentration at which the activity in the assay is half-maximal.

In assay [1] the target is Sodium-dependent noradrenaline transporter (Homo sapiens, UniProt P23975).
Assay [2] deals with Voltage-dependent L-type calcium channel subunit alpha-1C (Rattus norvegicus, UniProt P22002). The class given is functional.
In a further assay the target is T1, B2 bradykinin receptor (Homo sapiens, UniProt P30411).
T1 sequence (P30411 whole entry): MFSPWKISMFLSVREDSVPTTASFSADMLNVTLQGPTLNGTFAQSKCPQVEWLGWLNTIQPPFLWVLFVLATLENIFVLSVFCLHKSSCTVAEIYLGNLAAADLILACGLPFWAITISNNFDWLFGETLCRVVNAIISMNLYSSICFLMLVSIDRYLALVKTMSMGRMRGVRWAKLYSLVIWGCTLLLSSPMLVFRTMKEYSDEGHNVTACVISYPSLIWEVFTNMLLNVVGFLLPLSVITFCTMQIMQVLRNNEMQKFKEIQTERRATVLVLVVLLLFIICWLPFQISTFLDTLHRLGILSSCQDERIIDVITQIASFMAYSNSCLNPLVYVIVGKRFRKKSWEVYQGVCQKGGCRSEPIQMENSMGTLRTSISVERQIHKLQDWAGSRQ

The target in assay [3] is T2, Alpha-2C adrenergic receptor (Homo sapiens, UniProt P18825).
T2 sequence (P18825 whole entry): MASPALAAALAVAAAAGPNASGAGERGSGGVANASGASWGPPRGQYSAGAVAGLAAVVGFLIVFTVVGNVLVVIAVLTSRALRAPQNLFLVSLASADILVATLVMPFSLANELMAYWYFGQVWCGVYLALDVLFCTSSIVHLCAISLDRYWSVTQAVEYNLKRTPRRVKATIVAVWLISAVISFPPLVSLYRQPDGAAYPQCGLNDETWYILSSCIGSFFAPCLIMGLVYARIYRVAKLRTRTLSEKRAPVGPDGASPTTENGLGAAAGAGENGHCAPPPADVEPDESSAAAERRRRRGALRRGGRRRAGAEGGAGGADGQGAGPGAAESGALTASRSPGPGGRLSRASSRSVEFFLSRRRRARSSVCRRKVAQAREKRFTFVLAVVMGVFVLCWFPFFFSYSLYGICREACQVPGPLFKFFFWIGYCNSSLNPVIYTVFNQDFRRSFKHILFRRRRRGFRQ
The format is functional.

Assay [4] has as its target T3, 5-hydroxytryptamine receptor 3A (Homo sapiens, UniProt P46098).
T3 sequence (P46098 whole entry): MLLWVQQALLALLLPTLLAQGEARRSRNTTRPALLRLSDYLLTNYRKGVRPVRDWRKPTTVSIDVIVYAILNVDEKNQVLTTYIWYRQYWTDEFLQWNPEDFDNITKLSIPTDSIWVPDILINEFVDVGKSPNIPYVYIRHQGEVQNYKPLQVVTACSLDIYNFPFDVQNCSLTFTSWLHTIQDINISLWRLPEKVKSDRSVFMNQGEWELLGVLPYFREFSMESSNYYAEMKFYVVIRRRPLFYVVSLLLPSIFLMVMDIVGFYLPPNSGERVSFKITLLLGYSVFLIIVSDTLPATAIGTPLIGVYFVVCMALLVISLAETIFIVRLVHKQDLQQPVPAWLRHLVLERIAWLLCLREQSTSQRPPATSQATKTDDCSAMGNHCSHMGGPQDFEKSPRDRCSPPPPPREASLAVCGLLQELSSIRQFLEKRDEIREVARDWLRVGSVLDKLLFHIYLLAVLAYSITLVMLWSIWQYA
The format is functional.

The target of assay [5] is Beta-2 adrenergic receptor (Homo sapiens, UniProt P07550).
Assay [6] deals with T4, Prostaglandin G/H synthase 1 (Rattus norvegicus, UniProt Q63921).
T4 sequence (Q63921 whole entry): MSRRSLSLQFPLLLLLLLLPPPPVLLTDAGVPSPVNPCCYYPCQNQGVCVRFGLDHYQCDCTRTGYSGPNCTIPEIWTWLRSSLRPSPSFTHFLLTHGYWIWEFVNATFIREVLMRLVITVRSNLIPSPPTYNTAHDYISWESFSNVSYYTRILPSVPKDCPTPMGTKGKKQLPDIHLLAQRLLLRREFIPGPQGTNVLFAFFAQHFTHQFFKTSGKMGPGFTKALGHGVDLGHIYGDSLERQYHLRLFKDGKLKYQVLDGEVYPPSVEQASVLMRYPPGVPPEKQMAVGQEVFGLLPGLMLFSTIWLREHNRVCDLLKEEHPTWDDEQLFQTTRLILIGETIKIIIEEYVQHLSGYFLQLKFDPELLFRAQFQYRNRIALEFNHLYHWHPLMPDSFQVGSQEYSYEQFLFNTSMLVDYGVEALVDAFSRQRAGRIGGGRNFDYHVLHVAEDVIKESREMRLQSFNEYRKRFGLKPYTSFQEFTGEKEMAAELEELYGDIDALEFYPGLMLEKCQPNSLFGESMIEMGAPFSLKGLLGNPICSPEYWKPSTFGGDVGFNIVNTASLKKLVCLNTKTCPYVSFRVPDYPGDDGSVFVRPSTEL
The format is functional.

The target in a further assay is Histamine H3 receptor (Homo sapiens, UniProt Q9Y5N1).
The target in assay [7] is T5, 5-hydroxytryptamine receptor 1A (Homo sapiens, UniProt P08908).
T5 sequence (P08908 whole entry): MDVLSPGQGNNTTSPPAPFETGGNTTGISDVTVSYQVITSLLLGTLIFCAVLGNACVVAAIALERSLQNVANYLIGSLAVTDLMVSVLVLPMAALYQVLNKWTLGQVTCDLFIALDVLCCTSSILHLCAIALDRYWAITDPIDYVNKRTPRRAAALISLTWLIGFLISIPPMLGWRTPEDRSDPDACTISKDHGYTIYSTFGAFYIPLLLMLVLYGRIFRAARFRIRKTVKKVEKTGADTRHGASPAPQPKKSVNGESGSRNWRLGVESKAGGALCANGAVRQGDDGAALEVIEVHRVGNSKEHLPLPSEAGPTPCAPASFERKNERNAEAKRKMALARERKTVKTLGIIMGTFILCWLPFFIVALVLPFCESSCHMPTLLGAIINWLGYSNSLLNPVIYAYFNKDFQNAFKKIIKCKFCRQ
The class given is functional, cell-based.
Note: assay procedure not described here.

Voltage-dependent L-type calcium channel subunit alpha-1C, sequence (P22002 whole entry): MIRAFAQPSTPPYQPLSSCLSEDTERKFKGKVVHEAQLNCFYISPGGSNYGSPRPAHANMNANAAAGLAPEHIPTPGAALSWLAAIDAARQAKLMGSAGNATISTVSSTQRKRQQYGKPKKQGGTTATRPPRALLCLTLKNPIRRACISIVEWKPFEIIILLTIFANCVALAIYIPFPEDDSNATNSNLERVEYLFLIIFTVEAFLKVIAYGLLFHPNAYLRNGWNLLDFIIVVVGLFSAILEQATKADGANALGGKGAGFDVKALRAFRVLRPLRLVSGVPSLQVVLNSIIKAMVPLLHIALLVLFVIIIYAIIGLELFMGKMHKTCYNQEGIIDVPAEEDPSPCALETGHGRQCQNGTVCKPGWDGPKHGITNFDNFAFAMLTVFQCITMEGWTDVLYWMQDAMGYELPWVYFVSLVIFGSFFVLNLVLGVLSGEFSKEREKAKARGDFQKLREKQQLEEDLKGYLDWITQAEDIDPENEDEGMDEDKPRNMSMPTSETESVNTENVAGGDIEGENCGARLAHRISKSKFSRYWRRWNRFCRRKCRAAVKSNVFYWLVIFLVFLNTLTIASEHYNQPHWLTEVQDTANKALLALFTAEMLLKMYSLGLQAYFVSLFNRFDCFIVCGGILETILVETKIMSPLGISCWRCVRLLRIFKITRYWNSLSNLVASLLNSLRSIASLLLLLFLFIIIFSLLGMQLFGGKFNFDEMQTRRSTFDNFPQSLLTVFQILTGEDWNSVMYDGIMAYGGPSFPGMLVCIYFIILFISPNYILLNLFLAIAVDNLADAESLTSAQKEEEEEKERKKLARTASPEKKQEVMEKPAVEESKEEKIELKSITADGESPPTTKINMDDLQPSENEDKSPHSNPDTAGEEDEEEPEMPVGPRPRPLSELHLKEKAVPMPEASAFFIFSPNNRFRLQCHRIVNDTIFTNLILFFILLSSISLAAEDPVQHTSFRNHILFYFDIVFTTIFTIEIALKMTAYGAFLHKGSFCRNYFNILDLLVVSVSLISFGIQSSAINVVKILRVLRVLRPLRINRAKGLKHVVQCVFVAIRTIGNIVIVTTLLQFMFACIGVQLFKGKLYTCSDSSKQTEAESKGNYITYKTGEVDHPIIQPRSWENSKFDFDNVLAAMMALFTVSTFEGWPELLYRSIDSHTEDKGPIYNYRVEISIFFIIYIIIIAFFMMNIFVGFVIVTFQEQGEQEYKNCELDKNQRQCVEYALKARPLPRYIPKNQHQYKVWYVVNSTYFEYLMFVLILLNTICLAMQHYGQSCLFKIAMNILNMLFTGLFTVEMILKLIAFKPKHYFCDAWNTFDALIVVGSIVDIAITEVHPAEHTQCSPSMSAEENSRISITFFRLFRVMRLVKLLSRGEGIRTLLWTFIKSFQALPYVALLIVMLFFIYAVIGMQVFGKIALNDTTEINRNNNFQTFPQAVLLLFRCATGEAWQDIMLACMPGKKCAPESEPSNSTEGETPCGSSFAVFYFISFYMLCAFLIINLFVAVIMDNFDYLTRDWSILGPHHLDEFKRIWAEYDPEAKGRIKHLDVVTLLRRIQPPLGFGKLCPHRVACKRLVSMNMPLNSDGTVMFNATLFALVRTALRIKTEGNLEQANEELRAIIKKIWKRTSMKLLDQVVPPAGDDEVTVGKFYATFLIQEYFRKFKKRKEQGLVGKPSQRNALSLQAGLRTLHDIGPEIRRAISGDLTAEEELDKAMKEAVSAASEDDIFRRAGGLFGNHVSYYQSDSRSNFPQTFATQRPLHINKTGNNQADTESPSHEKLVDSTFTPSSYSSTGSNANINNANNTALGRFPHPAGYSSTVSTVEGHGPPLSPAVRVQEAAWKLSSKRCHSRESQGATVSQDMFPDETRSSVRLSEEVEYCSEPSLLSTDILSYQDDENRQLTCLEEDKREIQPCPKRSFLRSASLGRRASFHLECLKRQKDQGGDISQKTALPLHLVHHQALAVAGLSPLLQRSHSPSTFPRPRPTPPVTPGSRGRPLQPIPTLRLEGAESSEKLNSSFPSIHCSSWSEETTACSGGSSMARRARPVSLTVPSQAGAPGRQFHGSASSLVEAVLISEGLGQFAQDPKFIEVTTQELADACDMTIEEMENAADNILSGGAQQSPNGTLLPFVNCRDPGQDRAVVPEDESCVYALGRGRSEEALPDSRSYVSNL
Histamine H3 receptor, sequence (Q9Y5N1 whole entry): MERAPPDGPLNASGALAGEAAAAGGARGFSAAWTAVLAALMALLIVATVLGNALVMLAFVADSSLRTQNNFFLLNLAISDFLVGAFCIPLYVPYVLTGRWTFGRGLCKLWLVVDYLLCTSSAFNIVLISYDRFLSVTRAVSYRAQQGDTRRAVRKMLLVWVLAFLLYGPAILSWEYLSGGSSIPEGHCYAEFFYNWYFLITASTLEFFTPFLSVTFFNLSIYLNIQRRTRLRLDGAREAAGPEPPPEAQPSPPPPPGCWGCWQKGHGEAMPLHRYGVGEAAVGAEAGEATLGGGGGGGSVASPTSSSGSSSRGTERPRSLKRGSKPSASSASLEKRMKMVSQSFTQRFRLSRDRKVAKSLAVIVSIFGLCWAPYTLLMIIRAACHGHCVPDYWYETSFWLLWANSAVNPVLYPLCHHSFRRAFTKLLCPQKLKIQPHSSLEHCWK
Sodium-dependent noradrenaline transporter, sequence (P23975 whole entry): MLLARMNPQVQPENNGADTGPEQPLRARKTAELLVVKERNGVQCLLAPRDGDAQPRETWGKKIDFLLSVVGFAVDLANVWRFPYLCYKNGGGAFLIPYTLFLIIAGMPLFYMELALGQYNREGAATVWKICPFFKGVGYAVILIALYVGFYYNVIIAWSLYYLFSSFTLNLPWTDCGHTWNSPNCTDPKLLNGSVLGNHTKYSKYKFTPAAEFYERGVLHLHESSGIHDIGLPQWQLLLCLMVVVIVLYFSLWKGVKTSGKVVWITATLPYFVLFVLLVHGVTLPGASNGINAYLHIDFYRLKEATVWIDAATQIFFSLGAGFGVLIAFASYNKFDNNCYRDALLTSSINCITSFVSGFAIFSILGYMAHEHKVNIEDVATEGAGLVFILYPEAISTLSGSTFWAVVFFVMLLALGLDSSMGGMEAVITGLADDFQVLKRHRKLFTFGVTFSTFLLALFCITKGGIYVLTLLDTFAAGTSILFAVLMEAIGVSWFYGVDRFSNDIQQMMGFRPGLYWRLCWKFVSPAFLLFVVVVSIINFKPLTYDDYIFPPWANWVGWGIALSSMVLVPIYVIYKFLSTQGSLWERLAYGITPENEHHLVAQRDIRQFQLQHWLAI
Beta-2 adrenergic receptor, sequence (P07550 whole entry): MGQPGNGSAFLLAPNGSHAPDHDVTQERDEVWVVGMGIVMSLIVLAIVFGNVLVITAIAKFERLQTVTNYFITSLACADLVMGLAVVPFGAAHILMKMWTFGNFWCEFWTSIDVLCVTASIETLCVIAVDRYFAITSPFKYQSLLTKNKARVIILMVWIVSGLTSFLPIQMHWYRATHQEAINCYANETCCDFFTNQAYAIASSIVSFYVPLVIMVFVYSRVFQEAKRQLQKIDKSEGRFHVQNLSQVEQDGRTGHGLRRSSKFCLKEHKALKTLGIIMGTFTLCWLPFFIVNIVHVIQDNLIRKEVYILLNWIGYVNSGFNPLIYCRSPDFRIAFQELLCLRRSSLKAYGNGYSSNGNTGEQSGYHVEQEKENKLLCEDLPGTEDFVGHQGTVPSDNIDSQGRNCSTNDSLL

`Oc1cc(O)c(Cl)cn1`: the AC50 (in assay [1]; in assay [2]; on B2 bradykinin receptor; in assay [3]; in assay [4]; in assay [5]) was above 30 µM throughout. Further, the AC50 (in assay [6]; at Histamine H3 receptor; in assay [7]) was above 30 µM in each case.

Regarding `CC(C)N(CCCCOCC(=O)O)c1cnc(-c2ccccc2)c(-c2ccccc2)n1`, the AC50 in [1] is above 30 µM; in assay [2], above 30 µM; at B2 bradykinin receptor, above 10 µM; in assay [3], above 30 µM; in assay [4] it was above 30 µM; in assay [5], above 30 µM. Besides, the AC50 (in assay [6]; on Histamine H3 receptor; in assay [7]) was above 30 µM throughout.

On to `COc1cc(C)c(/C=C/C(C)=C/C=C/C(C)=C/C(=O)O)c(C)c1C` [ACITRETIN], for which the AC50 in assay [1] is above 10 µM; in assay [2], above 10 µM; on B2 bradykinin receptor, above 10 µM; in assay [3], above 10 µM; in assay [4], above 30 µM; in assay [5], above 10 µM. Further, the AC50 in assay [6] is 0.517 µM; at Histamine H3 receptor, above 10 µM; in [7], above 10 µM.

Take `Cc1cc(=O)n(-c2ccccc2)n1C` [ANTIPYRINE]: the AC50 in assay [1] is above 30 µM; in [2], above 10 µM; at B2 bradykinin receptor, above 30 µM; in [3] it was above 10 µM; in assay [4] it was above 30 µM; in [5] it was above 10 µM. The AC50 in [6] was above 30 µM; at Histamine H3 receptor it was above 10 µM; in assay [7], above 30 µM.

For the molecule `O=C(O)CCNC(=O)c1ccc(/N=N/c2ccc(O)c(C(=O)O)c2)cc1` [BALSALAZIDE], the AC50 in [1] is above 30 µM; in [2] it was above 30 µM; at B2 bradykinin receptor, above 30 µM; in assay [3], above 30 µM; in assay [4], 15 µM; in assay [5] it was above 30 µM. Further, the AC50 in assay [6] was above 30 µM; on Histamine H3 receptor, 35.5 µM; in [7], above 30 µM.

As for `O=C(CCCN1CCC(O)(c2ccc(Br)cc2)CC1)c1ccc(F)cc1` [BROMPERIDOL], the AC50 (in [2]; on B2 bradykinin receptor; in assay [4]; in assay [5]; in assay [6]; on Histamine H3 receptor) was above 30 µM in each case. This molecule also gave an AC50 in [7] above 30 µM.

Take `Clc1ccc(CCC(Cn2ccnc2)Sc2c(Cl)cccc2Cl)cc1` (stereo unspecified) [BUTOCONAZOLE]: the AC50 in [1] was above 30 µM; in [2], 17 µM; at B2 bradykinin receptor, above 30 µM; in assay [3], above 30 µM; in [4], above 30 µM; in [5], above 30 µM. Also, the AC50 was 14 µM in [6], above 30 µM at Histamine H3 receptor and above 30 µM in [7].

For the molecule `COc1cc(N)c(Cl)cc1C(=O)NC1CCN(CCCOc2ccc(F)cc2)CC1OC` (stereo unspecified) [CISAPRIDE], the AC50 in assay [1] was above 30 µM; in assay [2], above 10 µM; on B2 bradykinin receptor, above 30 µM; in assay [4], above 30 µM; in assay [5] it was above 10 µM; in assay [6], above 30 µM. For the same molecule, the AC50 (at Histamine H3 receptor; in assay [7]) was above 10 µM each time.

Take `CC(CN(C)C)C(C)(O)Cc1ccc(Cl)cc1` (stereo unspecified) [CLOBUTINOL]: the AC50 in assay [1] was above 30 µM; in [2], above 10 µM; on B2 bradykinin receptor it was above 30 µM; in assay [3], above 10 µM; in assay [4] it was above 30 µM; in assay [5] it was above 30 µM. Also, the AC50 was above 30 µM in [6], above 10 µM on Histamine H3 receptor and above 10 µM in [7].

As to `Fc1ccc([C@@H]2CCNC[C@H]2COc2ccc3c(c2)OCO3)cc1` [PAROXETINE], the AC50 in [2] was 2.5 µM; at B2 bradykinin receptor, above 30 µM; in assay [3] it was 7.8 µM; in [4] it was above 10 µM; in assay [5], 9.5 µM; in [6], above 30 µM. Further, the AC50 was above 10 µM on Histamine H3 receptor and 17 µM in [7].

Consider `NC(=O)NC(=O)Cc1ccccc1` [PHENACEMIDE], for which the AC50 was above 10 µM in assay [1]; above 10 µM in [2]; above 10 µM at B2 bradykinin receptor; above 10 µM in assay [3]; above 30 µM in [4]; above 10 µM in assay [5]. Besides, the concentration at half-maximal activity (AC50) in assay [6] and in assay [7] was above 10 µM each time.

Take `CCCN(CCC)S(=O)(=O)c1ccc(C(=O)O)cc1` [PROBENECID]: the half-maximal activity concentration (AC50) is above 10 µM in [1]; above 10 µM in [2]; above 10 µM on B2 bradykinin receptor; above 10 µM in assay [3]; above 30 µM in assay [4]; above 10 µM in assay [5]. Moreover, the AC50 in assay [6] and in assay [7] was above 10 µM each time.

Regarding `CCc1nc(N)nc(N)c1-c1ccc(Cl)cc1` [PYRIMETHAMINE], the AC50 was above 30 µM in [1]; above 10 µM in [2]; above 10 µM at B2 bradykinin receptor; above 30 µM in [3]; above 30 µM in assay [4]; above 10 µM in assay [5]. Moreover, the AC50 in [6] is above 10 µM; in assay [7] it was 18 µM.

Turning to `CC1=C(/C=C/C(C)=C/C=C/C(C)=C/CO)C(C)(C)CCC1` [RETINOL], the AC50 was above 10 µM in assay [1]; above 10 µM in [2]; above 10 µM at B2 bradykinin receptor; above 10 µM in assay [3]; above 30 µM in assay [4]; above 10 µM in assay [5]. Also, the AC50 in assay [6] and in assay [7] was above 10 µM in each case.

Turning to `Cc1cc(C)nc(NS(=O)(=O)c2ccc(N)cc2)n1` [SULFAMETHAZINE], the AC50 in assay [1] was above 10 µM; in [2], above 10 µM; on B2 bradykinin receptor, above 10 µM; in assay [3] it was above 30 µM; in [4], above 30 µM; in assay [5], above 10 µM. Further, the AC50 in assay [6] and in assay [7] was above 10 µM throughout.
